From patent US11566007B2, “Ras inhibitors” (Revolution Medicines, Inc., priority 2019, dated 2023)
“And” between values parts separate entries of the source, which are not always exact repeats. Equal entries are not always repeated. Where two headings read alike, the source gives them in different places.

Tests used:
KRAS G12V = KRAS G12V (Homo sapiens (Human), UniProt P01116+P62937, G12V); experiment: Ras-Raf (BRAF RBD) disruption / FRET / MOA assay, KRAS G12V; type: biochemical; conditions: read-out: IC50* KRAS G12V FRET data
Chain of KRAS G12V (P01116-2 other isoform, or with tags, fused parts or gaps G12V): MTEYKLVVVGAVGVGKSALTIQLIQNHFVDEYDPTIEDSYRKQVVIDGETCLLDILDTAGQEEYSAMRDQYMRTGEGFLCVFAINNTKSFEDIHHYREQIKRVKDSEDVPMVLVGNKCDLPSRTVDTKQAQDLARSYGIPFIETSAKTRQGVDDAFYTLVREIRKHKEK
Chain of KRAS G12V (P62937 whole entry, canonical isoform): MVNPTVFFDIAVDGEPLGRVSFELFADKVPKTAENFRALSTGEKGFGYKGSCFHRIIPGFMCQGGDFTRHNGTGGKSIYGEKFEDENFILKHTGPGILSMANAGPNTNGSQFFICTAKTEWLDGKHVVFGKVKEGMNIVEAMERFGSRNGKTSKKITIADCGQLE
Protocol: (§1) The purpose of this biochemical assay is to measure the ability of test compounds to facilitate ternary complex formation between a nucleotide-loaded Ras isoform and cyclophilin A; the resulting ternary complex disrupts binding to a BRAF^RBD construct, inhibiting Ras signaling through a RAF effector.
(§2) Compound is present in plate wells as a 10-point 3-fold dilution series starting at a final concentration of 30 μM. After incubation at 25° C. for 3 hours, a mixture of Anti-His Eu-W1024 and anti-GST allophycocyanin is then added to assay sample wells at final concentrations of 10 nM and 50 nM, respectively, and the reaction incubated for an additional 1.5 hours. […] Compounds that facilitate disruption of a Ras:RAF complex are identified as those eliciting a decrease in the TR-FRET ratio relative to DMSO control wells.
(§3) This protocol may also be executed substituting other Ras proteins or nucleotides.
(§4) The purpose of this biochemical assay was to measure the ability of test compounds to facilitate ternary complex formation between a nucleotide-loaded K-Ras isoform and Cyclophilin A; the resulting ternary complex disrupts binding to a BRAF^RBD construct, inhibiting K-Ras signaling through a RAF effector. Data is reported as IC50 values.
as §2, with “Compound was” for “Compound is”, “allophycocyanin was” for “allophycocyanin is”, “a K-Ras:RAF” for “a Ras:RAF”, “complex were” for “complex are”

[1] = tested on: NCI-H358 cells (K-Ras G12C); experiment: Potency assay: pERK in NCI-H358 cells; type: cell-based, human; conditions: Homo sapiens
Summary of the method: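 4 h cpd, 37 °C; 10-pt 3-fold series, 10 mM DMSO top stock, duplicates. Readout pERK: AlphaLISA SureFire Ultra or In-Cell Western (IR-800CW secondary, DRAQ5 DNA stain). IC50, 4-PL fit vs log conc.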

KRAS G12D = KRAS G12D (Homo sapiens (Human), UniProt P01116+P62937, G12D); experiment: Ras-Raf (BRAF RBD) disruption / FRET / MOA assay, KRAS G12D; type: biochemical
Chain of KRAS G12D (P01116-2 other isoform, or with tags, fused parts or gaps G12D): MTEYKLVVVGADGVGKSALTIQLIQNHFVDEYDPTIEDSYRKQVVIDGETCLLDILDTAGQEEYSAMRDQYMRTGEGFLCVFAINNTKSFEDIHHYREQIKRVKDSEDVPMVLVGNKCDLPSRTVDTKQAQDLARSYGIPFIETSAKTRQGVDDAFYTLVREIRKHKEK
Chain of KRAS G12D (P62937 whole entry): as the sequence (P62937 whole entry, canonical isoform) above
Summary of the method: (§5)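 Ternary complex formation (Ras–compound–cyclophilin A) displacing BRAF RBD, monitored by TR-FRET. Three hours at 25° C with compound (top 30 μM final), then 1.5 h with the labelled antibodies. Lower ratio than DMSO indicates disruption; IC50 reported.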

KRAS G12S = KRAS G12S (Homo sapiens (Human), UniProt P01116+P62937, G12S); experiment: Ras-Raf (BRAF RBD) disruption / FRET / MOA assay, KRAS G12S; type: biochemical
Chain of KRAS G12S (P01116-2 other isoform, or with tags, fused parts or gaps G12S): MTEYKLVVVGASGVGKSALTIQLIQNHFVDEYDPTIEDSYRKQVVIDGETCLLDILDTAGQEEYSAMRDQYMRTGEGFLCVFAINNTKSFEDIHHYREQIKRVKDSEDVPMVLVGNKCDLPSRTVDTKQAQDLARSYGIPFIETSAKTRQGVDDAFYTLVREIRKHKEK
Chain of KRAS G12S (P62937 whole entry): as the sequence (P62937 whole entry, canonical isoform) above
Summary of the method: as §5

NRAS G12C = NRAS G12C (Homo sapiens (Human), UniProt P01111+P62937, G12C); experiment: Ras-Raf (BRAF RBD) disruption / FRET / MOA assay, NRAS G12C; type: biochemical; conditions: read-out: IC50* NRAS G12C FRET data
Chain of NRAS G12C (P01111 whole entry G12C): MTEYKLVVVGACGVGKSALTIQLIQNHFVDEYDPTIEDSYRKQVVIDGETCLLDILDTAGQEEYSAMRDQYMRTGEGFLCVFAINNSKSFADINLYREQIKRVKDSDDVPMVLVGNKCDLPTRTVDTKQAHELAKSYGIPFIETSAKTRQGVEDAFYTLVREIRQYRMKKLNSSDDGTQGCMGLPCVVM
Chain of NRAS G12C (P62937 whole entry): as the sequence (P62937 whole entry, canonical isoform) above
Protocol: as §1, §2
This protocol may also be executed substituting other Ras proteins or nucleotides. […]

K-Ras G12C = K-Ras G12C (Homo sapiens (Human), UniProt P01116+P62937, G12C); experiment: Ras-Raf (BRAF RBD) disruption / FRET / MOA assay, KRAS G12C; type: biochemical; conditions: KRAS G12C; Ras-Raf disruption/FRET/MOA assay; read-out: IC50* KRAS G12C FRET data
Chain of K-Ras G12C (P01116-2 other isoform, or with tags, fused parts or gaps G12C): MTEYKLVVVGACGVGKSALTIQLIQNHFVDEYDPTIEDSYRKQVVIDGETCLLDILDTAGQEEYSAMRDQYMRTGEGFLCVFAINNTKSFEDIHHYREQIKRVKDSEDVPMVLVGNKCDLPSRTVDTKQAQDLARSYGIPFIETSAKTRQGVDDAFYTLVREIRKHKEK
Chain of K-Ras G12C (P62937 whole entry): as the sequence (P62937 whole entry, canonical isoform) above
Protocol: as §1, §2, §3, §4
as §2, with “Compound was” for “Compound is”, “allophycocyanin was” for “allophycocyanin is”, “a K-Ras:RAF” for “a Ras:RAF”, “complex were” for “complex are”

K-Ras G13C = K-Ras G13C (Homo sapiens (Human), UniProt P01116+P62937, G13C); experiment: Ras-Raf (BRAF RBD) disruption / FRET / MOA assay, KRAS G13C; type: biochemical; conditions: KRAS G13C; Ras-Raf disruption/FRET/MOA assay; read-out: IC50* KRAS G13C FRET data
Chain of K-Ras G13C (P01116-2 other isoform, or with tags, fused parts or gaps G13C): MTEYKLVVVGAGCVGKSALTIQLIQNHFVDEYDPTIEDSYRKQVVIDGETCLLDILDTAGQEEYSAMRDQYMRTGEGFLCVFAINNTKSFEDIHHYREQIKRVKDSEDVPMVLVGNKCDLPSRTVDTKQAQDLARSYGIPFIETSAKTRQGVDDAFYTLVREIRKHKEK
Chain of K-Ras G13C (P62937 whole entry): as the sequence (P62937 whole entry, canonical isoform) above
Protocol: as §1, §2, §3, §4
as §2, with “Compound was” for “Compound is”, “allophycocyanin was” for “allophycocyanin is”, “a K-Ras:RAF” for “a Ras:RAF”, “complex were” for “complex are”

KRAS WT = KRAS WT (Homo sapiens (Human), UniProt P01116+P62937); experiment: Ras-Raf (BRAF RBD) disruption / FRET / MOA assay, KRAS WT; type: biochemical; conditions: read-out: IC50* KRAS WT FRET data
Chain of KRAS WT (P01116-2 other isoform, or with tags, fused parts or gaps): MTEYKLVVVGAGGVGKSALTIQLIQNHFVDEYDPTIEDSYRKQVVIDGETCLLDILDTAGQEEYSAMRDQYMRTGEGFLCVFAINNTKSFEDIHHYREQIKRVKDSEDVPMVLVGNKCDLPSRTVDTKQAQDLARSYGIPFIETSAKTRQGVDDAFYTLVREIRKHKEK
Chain of KRAS WT (P62937 whole entry): as the sequence (P62937 whole entry, canonical isoform) above
Protocol: as §1, §2, §3, §4
as §2, with “Compound was” for “Compound is”, “allophycocyanin was” for “allophycocyanin is”, “a K-Ras:RAF” for “a Ras:RAF”, “complex were” for “complex are”

NCI-H358 (K-Ras G12C) = experiment: CellTiter-Glo cell viability assay, NCI-H358; type: cell-based, human; conditions: Homo sapiens, NCI-H358, 120 h, NCI-H358, 5-day treatment; class symbols; read-out: Additional H358 Cell Viability assay data (K-Ras G12C, IC50)
Summary of the method: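 Viability measured by CellTiter-Glo luminescence on day 5 following direct addition of compound to plated cells. Values expressed as percent of mean DMSO signal; curves fitted with a four-parameter logistic model.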

[2] = NCI-H358, H358 KRAS G12C, read-out: pERK EC50
[3] = Ras-Raf disruption/FRET/MOA assay; class symbols; read-out: KRAS G12D FRET data IC50
[4] = Ras-Raf disruption/FRET/MOA assay; class symbols; read-out: KRAS G12S FRET data IC50

Row | SMILES | IC50 (KRAS G12V) | EC50 ([1]; NCI-H358, read-out: pERK EC50) [nM] | IC50 (KRAS G12D; read-out: KRAS G12D FRET data IC50; Ras-Raf disruption/FRET/MOA assay; class symbols) [nM] | IC50 (KRAS G12S; read-out: KRAS G12S FRET data IC50; Ras-Raf disruption/FRET/MOA assay; class symbols) [nM] | IC50 (NRAS G12C) [nM] | EC50 [1, 2] [nM] | IC50 (KRAS G12D; [3]) [nM] | IC50 (K-Ras G12C) | IC50 (KRAS G12S; [4]) | IC50 (K-Ras G13C) | IC50 (KRAS WT) | IC50 (NCI-H358 (K-Ras G12C)) [nM]
1 | C=CC(=O)N1CCN(C(=O)N(C)[C@H](C(=O)N[C@H]2Cc3nc(cs3)-c3ccc4c(c3)c(c(-c3cccnc3[C@H](C)OC)n4CC(F)(F)F)CC(C)(C)COC(=O)[C@@H]3CCCN(N3)C2=O)C(C)C)CC1 (atropisomer, axis not shown) [Example A464] | 10 to 100 nM | < 5000 | 10 to 100 | 10 to 100 |  |  |  |  |  |  |  | 
2 | C=CC(=O)N1CC[C@H](C(=O)N(C)[C@H](C(=O)N[C@H]2Cc3nc(cs3)-c3ccc4c(c3)c(c(-c3cc(C5=CCN(C)CC5)cnc3[C@H](C)OC)n4CC)CC(C)(C)COC(=O)[C@@H]3CCCN(N3)C2=O)C(C)C)C1 (atropisomer, axis not shown) [Example A521] |  |  |  |  | 1000 to 10000 | < 5000 | > 10000 | 1000 to 10000 nM | 1000 to 10000 nM |  |  | 
3 | CCn1c(-c2cccnc2COC)c2c3cc(ccc31)-c1cc(O)cc(c1)C[C@H](NC(=O)[C@H](C(C)C)N(C)C(=O)c1ccc(NC(=O)/C=C/CN(C)C)cn1)C(=O)N1CCC[C@H](N1)C(=O)OCC(C)(C)C2 [Example A067] | 1000 to 10000 nM |  |  |  |  |  | 1000 to 10000 | 10 to 100 nM | 1000 to 10000 nM | 10 to 100 nM | 1000 to 10000 nM | 
4 | CCn1c(-c2cccnc2COC)c2c3cc(ccc31)-c1cc(O)cc(c1)C[C@H](NC(=O)[C@H](C(C)C)N(C)C(=O)C1CN(C(=O)/C=C/CN(C)C)C1)C(=O)N1CCC[C@H](N1)C(=O)OCC(C)(C)C2 [Example A071] | 1000 to 10000 nM |  |  |  |  |  | 1000 to 10000 | 10 to 100 nM | 1000 to 10000 nM | 10 to 100 nM | 1000 to 10000 nM | 
5 | C=CC(=O)N1CC[C@H](C(=O)N(C)[C@H](C(=O)N[C@H]2Cc3cc(O)cc(c3)-c3ccc4c(c3)c(c(-c3ccccc3CCN3CCCC3)n4CC)CC(C)(C)COC(=O)[C@@H]3CCCN(N3)C2=O)C(C)C)C1 [Example A100] | > 10000 nM |  |  |  |  | < 5000 | > 10000 | 1000 to 10000 nM | > 10000 nM | > 10000 nM | > 10000 nM | 100 to 1000
6 | C=CC(=O)N(C)CCCC(=O)N(C)[C@H](C(=O)N[C@H]1Cc2cc(O)cc(c2)-c2ccc3c(c2)c(c(-c2cccnc2COC)n3CC)CC(C)(C)COC(=O)[C@@H]2CCCN(N2)C1=O)C(C)C [Example A101] | 100 to 1000 nM |  |  |  |  | < 5000 | 1000 to 10000 | 100 to 1000 nM | 100 to 1000 nM | 100 to 1000 nM | 100 to 1000 nM | 100 to 1000
7 | C=CC(=O)N1CC[C@H](C(=O)N(C)[C@H](C(=O)N[C@H]2Cc3cc(O)cc(c3)-c3ccc4c(c3)c(c(-c3ccccc3CCOC)n4CC)C[C@H](C)COC(=O)[C@@H]3CCCN(N3)C2=O)C(C)C)C1 [Example A215] | 1000 to 10000 nM and > 10000 nM |  |  |  |  | < 5000 | > 10000 | 100 to 1000 nM and > 10000 nM | 1000 to 10000 nM and > 10000 nM | > 10000 nM | > 10000 nM | 
8 | C=CC(=O)N1CC[C@]2(CCCN([C@H](C(=O)N[C@H]3Cc4cc(O)cc(c4)-c4ccc5c(c4)c(c(-c4ccccc4CCOC)n5CC)CC(C)(C)COC(=O)[C@@H]4CCCN(N4)C3=O)C(C)C)C2=O)C1 [Example A217] | 1000 to 10000 nM and > 10000 nM |  |  |  |  | < 5000 | > 10000 | 100 to 1000 nM and > 10000 nM | 1000 to 10000 nM and > 10000 nM | 1000 to 10000 nM and > 10000 nM | 1000 to 10000 nM and > 10000 nM | 
